Values quoted from earlier work in patent US20060228403A1, “Nutritional supplements for cardiovascular health” (priority 2005, published 2006).

How the values were obtained:
[1] = test system: forearm microcirculation; conditions: after supplementation 4 g/d for 6 weeks
[2] = test system: cytochrome P450 omega-hydroxylase; conditions: hamster; for magnitude of O2-induced constriction of arterioles in the cremaster and retractor muscles: 17-octadecynoic acid 10 micromolar superfusion, DDMS intravenous infusion
[3] = test system: thromboxane B2; conditions: mice; fish oil daily by gavage six weeks; indomethacin 0.5 mg/kg ip acute
[4] = test system: platelet aggregation in cerebral arterioles; conditions: mice

SMILES: CC/C=C\C/C=C\C/C=C\C/C=C\C/C=C\CCCC(=O)O [EPA, eicosapentaenoic acid]
- plasma phospholipid EPA levels [1]: increased significantly

SMILES: C#CCCCCCCCCCCCCCCCC(=O)O [17-octadecynoic acid]
- arteriolar constriction in response to elevated PO2 in the epithelial portion of the cheek pouch [2]: unaffected
- magnitude of O2-induced constriction of arterioles in the cremaster and retractor muscles [2]: significant reduction

SMILES: COc1ccc2c(c1)c(CC(=O)O)c(C)n2C(=O)c1ccc(Cl)cc1 [Indomethacin, indomethacin]
- decrease of serum thromboxane B2 [3]: 80%
- effect on arteriolar platelet aggregation [4]: significantly slows
- increase of time to first arteriolar aggregate ([4]; 0.5 mg/kg ip acute): 35%

SMILES: CC/C=C\C/C=C\C/C=C\C/C=C\C/C=C\C/C=C\CCC(=O)O [DHA, docosahexaenoic acid]
- plasma phospholipid DHA composition [1]: increased

SMILES: CS(=O)(=O)NC(=O)CCCCCCCCCC=C(Br)Br [N-methylsulfonyl-12,12-dibromododec-11-enamide]
- arteriolar constriction in response to elevated PO2 in the epithelial portion of the cheek pouch [2]: unaffected
- magnitude of O2-induced constriction of arterioles in the cremaster and retractor muscles [2]: significant reduction
